Columns and labels:
Format in all cases: in vivo
[1] = test system: Setaria viridis; test: Test Example 5: herbicidal effect by foliage application, plastic box (symbol G); settings: 320 g/ha, 3 weeks after application
How it was run: (§1)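 Herbicide, formulated as an emulsion and diluted in water, is sprayed onto the aerial parts of 14-day seedlings. These were grown at 25° C. to 30° C. in sterilized diluvial soil; effects are graded after 3 weeks.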

[2] = test system: Apera spica-venti; test: Test Example 4: herbicidal effect by soil treatment (symbol L); settings: 320 g/ha
How it was run: (§2)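 Seeds were sown in sterilized diluvial soil, covered with about 1.5 cm of soil, and the soil surface was sprayed with a water-diluted emulsion of the compound at a predetermined rate. Plants grew in a greenhouse at 25° C. to 30° C.; effects were scored visually 3 weeks after application.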

[3] = test system: Setaria viridis; test: Test Example 4: herbicidal effect by soil treatment (symbol G); settings: 320 g/ha
How it was run: as §2

[4] = test system: Chenopodium album; test: Test Example 5: herbicidal effect by foliage application, plastic box (symbol O); settings: 320 g/ha, 3 weeks after application
How it was run: as §1

[5] = test system: Apera spica-venti; test: Test Example 5: herbicidal effect by foliage application, plastic box (symbol L); settings: 320 g/ha, 3 weeks after application
How it was run: as §1

[6] = test system: Scirpus juncoides; test: Test Example 1: herbicidal activity, application before weed generation in submerged conditions (symbol B); settings: application herbicide amount 320 g/ha
How it was run: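 Application before weed emergence: an aqueous dilution of the emulsion formulation was poured onto the surface of 4 cm-deep floodwater on the day of sowing. Effect was judged after 3 weeks (greenhouse, 25–30 °C).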

[7] = test system: Veronica persica; test: Test Example 5: herbicidal effect by foliage application, plastic box (symbol R); settings: 320 g/ha, 3 weeks after application
How it was run: as §1

[8] = test system: rapeseed; test: Test Example 4: effect on crop by soil treatment (symbol g); settings: 320 g/ha
How it was run: (§3)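 Sterilized diluvial soil, spot sowing, ~1.5 cm soil cover; greenhouse 25–30° C.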

[9] = test system: Veronica persica; test: Test Example 4: herbicidal effect by soil treatment (symbol R); settings: 320 g/ha
How it was run: as §2

[10] = test system: Digitaria ciliaris; test: Test Example 5: herbicidal effect by foliage application, plastic box (symbol F); settings: 320 g/ha, 3 weeks after application
How it was run: as §1

[11] = test system: rapeseed; test: Test Example 5: effect on crop by foliage application, plastic box (symbol g); settings: 320 g/ha, 3 weeks after application
How it was run: (§4)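 Crop seed is sown alongside grass and broadleaf weed species in spots in sterilized diluvial soil, then covered to a depth of about 1.5 cm. Plants grow in a greenhouse kept at 25° C. to 30° C.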

[12] = test system: Avena fatua; test: Test Example 5: herbicidal effect by foliage application, plastic box (symbol I); settings: 320 g/ha, 3 weeks after application
How it was run: as §1

[13] = test system: soybean; test: Test Example 5: effect on crop by foliage application, plastic box (symbol d); settings: 320 g/ha, 3 weeks after application
How it was run: as §4

[14] = test system: Abutilon theophrasti; test: Test Example 5: herbicidal effect by foliage application, plastic box (symbol M); settings: 320 g/ha, 3 weeks after application
How it was run: as §1

[15] = test system: Monochoria vaginalis; test: Test Example 2: herbicidal activity, application during weed generation in submerged conditions (symbol C); settings: Table 23; application herbicide amount 320 g/ha; grade 0-5 by criteria of Test Example 1
How it was run: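 Weeds emerging under flooded conditions were treated with compound formulated as an emulsion and diluted with water to the intended herbicide amount, poured onto the surface of 4 cm standing water. Seeds had been co-sown in alluvial soil; plants grew at 25° C. to 30° C. and were assessed after 3 weeks.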

[16] = test system: rice; test: Test Example 4: effect on crop by soil treatment (symbol b); settings: 320 g/ha
How it was run: as §3

[17] = test system: Echinochloa crus-galli var. crus-galli; test: Test Example 5: herbicidal effect by foliage application, plastic box (symbol H); settings: 320 g/ha, 3 weeks after application
How it was run: as §1

[18] = test system: Avena fatua; test: Test Example 4: herbicidal effect by soil treatment (symbol I); settings: 320 g/ha
How it was run: as §2

Compound: CON=C(C)CC1CC(OC(=O)C(C)Oc2ccc(Oc3cnc4cc(Cl)ccc4n3)cc2)=C(c2c(C)cc(C)cc2C)C1=O (stereo not drawn) [1-087]
- G: Setaria viridis, herbicidal effect (criteria 0-5) [1]: 5 (Herbicidal ratio of 90% or more (almost completely withered))
- L: Apera spica-venti, herbicidal effect grade [2]: 5 (Herbicidal ratio of 90% or more (almost completely withered))
- G: Setaria viridis, herbicidal effect grade [3]: 5 (Herbicidal ratio of 90% or more (almost completely withered))
- O: Chenopodium album, herbicidal effect (criteria 0-5) [4]: 0 (Herbicidal ratio of 5% or lower (almost no effect))
- L: Apera spica-venti, herbicidal effect (criteria 0-5) [5]: 5 (Herbicidal ratio of 90% or more (almost completely withered))
- Herbicidal effect grade, B: Scirpus juncoides [6]: 5 (Herbicidal ratio of 90% or more (almost completely withered))
- R: Veronica persica, herbicidal effect (criteria 0-5) [7]: 3 (Herbicidal ratio of 40% or higher and lower than 70%)
- g: rapeseed, effect grade on crop [8]: 5 (Herbicidal ratio of 90% or more (almost completely withered))
- R: Veronica persica, herbicidal effect grade [9]: 0 (Herbicidal ratio of 5% or lower (almost no effect))
- F: Digitaria ciliaris, herbicidal effect (criteria 0-5) [10]: 5 (Herbicidal ratio of 90% or more (almost completely withered))
- g: rapeseed, effect on crop (criteria 0-5) [11]: 4 (Herbicidal ratio of 70% or higher and lower than 90%)
- I: Avena fatua, herbicidal effect (criteria 0-5) [12]: 5 (Herbicidal ratio of 90% or more (almost completely withered))
- d: soybean, effect on crop (criteria 0-5) [13]: 3 (Herbicidal ratio of 40% or higher and lower than 70%)
- M: Abutilon theophrasti, herbicidal effect (criteria 0-5) [14]: 5 (Herbicidal ratio of 90% or more (almost completely withered))
- Herbicidal effect grade, C: Monochoria vaginalis [15]: 1 (Herbicidal ratio of 5% or higher and lower than 20%)
- b: directly sowed rice plant, effect grade on crop [16]: 5 (Herbicidal ratio of 90% or more (almost completely withered))
- H: Echinochloa crus-galli var. crus-galli, herbicidal effect (criteria 0-5) [17]: 5 (Herbicidal ratio of 90% or more (almost completely withered))
- I: Avena fatua, herbicidal effect grade [18]: 3 (Herbicidal ratio of 40% or higher and lower than 70%)

Compound: CON=C(C)CC1CC(OC(=O)C2=CCCC2)=C(c2c(C)cc(C)cc2C)C1=O (stereo not drawn) [1-088]
- G: Setaria viridis, herbicidal effect (criteria 0-5) [1]: 5 (Herbicidal ratio of 90% or more (almost completely withered))
- L: Apera spica-venti, herbicidal effect grade [2]: 5 (Herbicidal ratio of 90% or more (almost completely withered))
- G: Setaria viridis, herbicidal effect grade [3]: 5 (Herbicidal ratio of 90% or more (almost completely withered))
- O: Chenopodium album, herbicidal effect (criteria 0-5) [4]: 2 (Herbicidal ratio of 20% or higher and lower than 40%)
- L: Apera spica-venti, herbicidal effect (criteria 0-5) [5]: 5 (Herbicidal ratio of 90% or more (almost completely withered))
- Herbicidal effect grade, B: Scirpus juncoides [6]: 5 (Herbicidal ratio of 90% or more (almost completely withered))
- R: Veronica persica, herbicidal effect (criteria 0-5) [7]: 3 (Herbicidal ratio of 40% or higher and lower than 70%)
- g: rapeseed, effect grade on crop [8]: 4 (Herbicidal ratio of 70% or higher and lower than 90%)
- R: Veronica persica, herbicidal effect grade [9]: 0 (Herbicidal ratio of 5% or lower (almost no effect))
- F: Digitaria ciliaris, herbicidal effect (criteria 0-5) [10]: 5 (Herbicidal ratio of 90% or more (almost completely withered))
- g: rapeseed, effect on crop (criteria 0-5) [11]: 4 (Herbicidal ratio of 70% or higher and lower than 90%)
- I: Avena fatua, herbicidal effect (criteria 0-5) [12]: 5 (Herbicidal ratio of 90% or more (almost completely withered))
- d: soybean, effect on crop (criteria 0-5) [13]: 3 (Herbicidal ratio of 40% or higher and lower than 70%)
- M: Abutilon theophrasti, herbicidal effect (criteria 0-5) [14]: 4 (Herbicidal ratio of 70% or higher and lower than 90%)
- Herbicidal effect grade, C: Monochoria vaginalis [15]: 3 (Herbicidal ratio of 40% or higher and lower than 70%)
- b: directly sowed rice plant, effect grade on crop [16]: 5 (Herbicidal ratio of 90% or more (almost completely withered))
- H: Echinochloa crus-galli var. crus-galli, herbicidal effect (criteria 0-5) [17]: 5 (Herbicidal ratio of 90% or more (almost completely withered))
- I: Avena fatua, herbicidal effect grade [18]: 3 (Herbicidal ratio of 40% or higher and lower than 70%)

Compound: CON=C(C)CC1CC(OC(=O)C2=C(Br)CCC2)=C(c2c(C)cc(C)cc2C)C1=O (stereo not drawn) [1-089]
- G: Setaria viridis, herbicidal effect (criteria 0-5) [1]: 5 (Herbicidal ratio of 90% or more (almost completely withered))
- L: Apera spica-venti, herbicidal effect grade [2]: 5 (Herbicidal ratio of 90% or more (almost completely withered))
- G: Setaria viridis, herbicidal effect grade [3]: 5 (Herbicidal ratio of 90% or more (almost completely withered))
- O: Chenopodium album, herbicidal effect (criteria 0-5) [4]: 1 (Herbicidal ratio of 5% or higher and lower than 20%)
- L: Apera spica-venti, herbicidal effect (criteria 0-5) [5]: 5 (Herbicidal ratio of 90% or more (almost completely withered))
- Herbicidal effect grade, B: Scirpus juncoides [6]: 5 (Herbicidal ratio of 90% or more (almost completely withered))
- R: Veronica persica, herbicidal effect (criteria 0-5) [7]: 3 (Herbicidal ratio of 40% or higher and lower than 70%)
- g: rapeseed, effect grade on crop [8]: 4 (Herbicidal ratio of 70% or higher and lower than 90%)
- R: Veronica persica, herbicidal effect grade [9]: 0 (Herbicidal ratio of 5% or lower (almost no effect))
- F: Digitaria ciliaris, herbicidal effect (criteria 0-5) [10]: 5 (Herbicidal ratio of 90% or more (almost completely withered))
- g: rapeseed, effect on crop (criteria 0-5) [11]: 4 (Herbicidal ratio of 70% or higher and lower than 90%)
- I: Avena fatua, herbicidal effect (criteria 0-5) [12]: 5 (Herbicidal ratio of 90% or more (almost completely withered))
- d: soybean, effect on crop (criteria 0-5) [13]: 2 (Herbicidal ratio of 20% or higher and lower than 40%)
- M: Abutilon theophrasti, herbicidal effect (criteria 0-5) [14]: 4 (Herbicidal ratio of 70% or higher and lower than 90%)
- Herbicidal effect grade, C: Monochoria vaginalis [15]: 3 (Herbicidal ratio of 40% or higher and lower than 70%)
- b: directly sowed rice plant, effect grade on crop [16]: 5 (Herbicidal ratio of 90% or more (almost completely withered))
- H: Echinochloa crus-galli var. crus-galli, herbicidal effect (criteria 0-5) [17]: 5 (Herbicidal ratio of 90% or more (almost completely withered))
- I: Avena fatua, herbicidal effect grade [18]: 2 (Herbicidal ratio of 20% or higher and lower than 40%)

Compound: CCCC=CC(=O)OC1=C(c2c(C)cc(C)cc2C)C(=O)C(CC(C)=NOC)C1 (stereo not drawn) [1-090]
- G: Setaria viridis, herbicidal effect (criteria 0-5) [1]: 5 (Herbicidal ratio of 90% or more (almost completely withered))
- L: Apera spica-venti, herbicidal effect grade [2]: 5 (Herbicidal ratio of 90% or more (almost completely withered))
- G: Setaria viridis, herbicidal effect grade [3]: 5 (Herbicidal ratio of 90% or more (almost completely withered))
- O: Chenopodium album, herbicidal effect (criteria 0-5) [4]: 2 (Herbicidal ratio of 20% or higher and lower than 40%)
- L: Apera spica-venti, herbicidal effect (criteria 0-5) [5]: 5 (Herbicidal ratio of 90% or more (almost completely withered))
- Herbicidal effect grade, B: Scirpus juncoides [6]: 5 (Herbicidal ratio of 90% or more (almost completely withered))
- R: Veronica persica, herbicidal effect (criteria 0-5) [7]: 3 (Herbicidal ratio of 40% or higher and lower than 70%)
- g: rapeseed, effect grade on crop [8]: 4 (Herbicidal ratio of 70% or higher and lower than 90%)
- R: Veronica persica, herbicidal effect grade [9]: 0 (Herbicidal ratio of 5% or lower (almost no effect))
- F: Digitaria ciliaris, herbicidal effect (criteria 0-5) [10]: 5 (Herbicidal ratio of 90% or more (almost completely withered))
- g: rapeseed, effect on crop (criteria 0-5) [11]: 4 (Herbicidal ratio of 70% or higher and lower than 90%)
- I: Avena fatua, herbicidal effect (criteria 0-5) [12]: 5 (Herbicidal ratio of 90% or more (almost completely withered))
- d: soybean, effect on crop (criteria 0-5) [13]: 3 (Herbicidal ratio of 40% or higher and lower than 70%)
- M: Abutilon theophrasti, herbicidal effect (criteria 0-5) [14]: 4 (Herbicidal ratio of 70% or higher and lower than 90%)
- Herbicidal effect grade, C: Monochoria vaginalis [15]: 3 (Herbicidal ratio of 40% or higher and lower than 70%)
- b: directly sowed rice plant, effect grade on crop [16]: 5 (Herbicidal ratio of 90% or more (almost completely withered))
- H: Echinochloa crus-galli var. crus-galli, herbicidal effect (criteria 0-5) [17]: 5 (Herbicidal ratio of 90% or more (almost completely withered))
- I: Avena fatua, herbicidal effect grade [18]: 3 (Herbicidal ratio of 40% or higher and lower than 70%)

— patent US11000033B2, “Ketone or oxime compound, and herbicide” (NISSAN CHEMICAL CORPORATION, priority 2014, dated 2021)
